Laboratory results taken from patent publication US20030129205A1, “Composition and method for the prevention and/or the treatment of allergy” (priority 2000, published 2003).

B1: myoglobin: Sheep myoglobin purchased from Sigma Chemicals; red pigment, oxygen reservoir of muscle cells (protein, UniProt P02190 2-154, looked up)
Myoglobin: GLSDGEWQLVLNAWGKVEADVAGHGQEVLIRLFTGHPETLEKFDKFKHLKTEAEMKASEDLKKHGNTVLTALGGILKKKGHHEAEVKHLAESHANKHKIPVKYLEFISDAIIHVLHAKHPSDFGADAQGAMSKALELFRNDMAAQYKVLGFQG

Experiments:
CD4+ T cells = experiment: in vitro T cell proliferation assay ([3H]thymidine incorporation) with T cells of immunized Balb/c mice; format: cell-based, mouse; conditions: for proliferation of T cells from immunized mice: Balb/c (H-2d) mice immunized in footpad with 100 μg in complete Freund's adjuvant, lymph node CD4+ T cells restimulated in vitro with myoglobin or Der p II; for immunogenicity: Balb/c mice, subcutaneous immunization
Method: In order to determine experimentally whether this sequence homology could result in functional cross-reactivity between Der p II and myoglobin, mice were immunized by subcutaneous injections of FIS (SEQ ID NO. 2) or myoglobin.
Balb/c mice (H-2^d) were injected once in the footpad with 50 μl of a solution containing 100 μg of peptide or myoglobin emulsified in complete Freund's adjuvant. Ten days later, regional lymph nodes were retrieved, teased and extensively washed with sterile saline to recover cells. The cell suspension was then washed in RPMI buffer (Gibco). Pure CD4^+ T cell suspensions were obtained by negative selection using antibodies towards CD45R, CD11b and CD11c, all conjugated to magnetic beads according to the manufacturer's instructions (Miltenyi Biotech GmbH, Germany).
(§1) Functional cross-reactivity between Der p II, FIS and myoglobin was checked by in vitro proliferation assays. Thus, the T cell suspension was adjusted to 5×10^6 cells per ml in RPMI 1640 buffer supplemented with 2 mM glutamine, 100 U penicillin/ml, 100 jug streptomycin/ml, 5% heat-inactivated fetal calf serum and 5×10^−5 M 2-mercaptoethanol. One hundred μl of the T-cell-enriched fraction ([…]) was cultured in 100 μl of the above-described medium containing different concentrations of test peptide or myoglobin, and mitomycin-C treated syngeneic naive spleen cells as a source of APC (4×10^5 per well). Incubation was carried out into a humidified atmosphere of 5% CO2 in air for 4 days, and cells were pulsed during a final 18-h incubation with 1 μCi of [^3H] thymidine per well. The cells were then harvested onto glass fibres using a multiple-cell harvester. Radioactivity incorporated into proliferating cells was determined in a liquid scintillation counter. All tests were carried out in triplicate. The proliferative response was expressed as c.p.m.×10 after subtracting background value incorporation in the absence of antigen.

mouse T cells = experiment: T cell proliferation assay in mice of additional H-2 haplotypes; format: cell-based; conditions: H-2b (C57BL/6), H-2k (C3H), H-2d (SJL) as printed; significant proliferative response for the three haplotypes
[1] = tested on: T cells from peripheral blood; experiment: proliferation assay with T cells from peripheral blood of atopic individuals; format: cell-based
Method: as §1
Moreover, T cells were prepared from the peripheral blood of atopic individuals. Thus, a 50-ml sample of peripheral blood was obtained in heparin. The blood sample was diluted vol/vol in RPMI 1640 and applied to a Ficoll-Hypaque density gradient. […]

| Molecule | proliferation of T cells from immunized mice (CD4+ T cells) | immunogenicity (CD4+ T cells) | recognition of T cell epitope in additional mouse H-2 haplotypes (mouse T cells) | proportion of human subjects recognising the T cell epitope [1] |
| --- | --- | --- | --- | --- |
| FISEAIIHVLHSR (Physeter catodon) | proliferated to myoglobin and to Der p II | immunogen | – | – |
| SEPCIIHRGKP (Dermatophagoides) [SEQ ID NO. 1] | – | – | recognised in the context of three additional mouse H-2 haplotypes | more than 85% |
| B1 | proliferated to myoglobin and to Der p II | immunogen | – | – |
